Assay results taken from patent US20260345507A1, “COMPOSITIONS AND METHODS FOR DELIVERY OF RNA” (REJUVENATION TECHNOLOGIES, INC., priority 2022, published 2026).

Columns and labels:
[1] = tested on: P21; assay: Senescence marker P21 in lung alveolar cells of bleomycin-treated mice; assay type: in vivo, mouse; conditions: following bleomycin treatment
Protocol: FIGS. 3-17 and FIGS. 20-21 depict experiments involving the use of a different 5 lipid LNP composition where lung fibrosis was induced in third generation (G3) TERT knock-out (KO) mice, which have telomere lengths that are similar to those of humans. Bleomycin was administered via oropharyngeal aspiration at 2.0 U/kg. For FIGS. 13-16, an initial dose of bleomycin was administered via oropharyngeal aspiration at 0.5 U/kg one week prior to the 2.0 U/kg dose. LNPs were formulated with firefly luciferase mRNA (Ctrl) or TERT mRNA (mouse SEQ ID NO: 2, including synthetic 5′ UTR (SEQ ID NO: 3), wt mTert coding sequence (SEQ ID NO: 4) and mouse alpha-globin 3′ UTR (SEQ ID NO: 5)) (referred to as “TERT mRNA LNP” herein or “TERT” or “TERT mRNA” in the figures) and the lipids in the ratios of Table 3. The DOTAP molar ratio is 2.27 times higher in the 5 lipid LNP of Table 3. Mice were dosed at 1.5 mg/kg twice a week for two weeks beginning on day 7 post bleomycin. Some mice received bleomycin, but not LNP treatment (No LNP), and control mice received saline instead of bleomycin and LNP treatment (No Bleo). Tissues were harvested on day 24 post bleomycin. Lungs were […]. […] Telomerase activity was measured in lung tissue lysate using the telomeric repeat amplification protocol (TRAP) assay. […]

[2] = Pharmacokinetics of 5-lipid LNP (DOTAP by LC-MS/MS); assay type: in vivo, mouse; set-up: Decay constant: unit not given here; conditions: 1.0 mg mRNA/kg; for half-life: mouse, 1 mg/kg
Protocol: Methods: LNPs were formulated using lipid molar ratios in Table 1 with mRNA encoding human telomerase. CD1 male mice were dosed at 1.0 mg mRNA/kg of body weight, and plasma and tissue were collected at time points 0 (<5 min) and 24 hours. DOTAP was measured using LC-MS/MS. mRNA was measured by qRT-PCR. “Liver Rest” is the liver sample excluding the left lobe.

[3] = Liver Left Lobe, dosed as 5-lipid LNP of Table 1, CD1 male mice
[4] = Liver Rest (liver excluding left lobe), 5-lipid LNP of Table 1, CD1 male mice
[5] = Lung Right Lobes, 5-lipid LNP of Table 1, CD1 male mice
[6] = Plasma, 5-lipid LNP of Table 1, CD1 male mice
[7] = Spleen, 5-lipid LNP of Table 1, CD1 male mice

Compound | senescence (P21) [1] | Decay constant [2, 3] | Decay constant [2, 4] | Decay constant ([2]; Lung Left Lobe, 5-lipid LNP of Table 1, CD1 male mice) | Decay constant [2, 5] | Decay constant [2, 6] | Decay constant [2, 7] | half-life [2, 3] | half-life [2, 4] | half-life [2, 5] | half-life [2, 6] | half-life [2, 7]
bleomycin | Increase in senescence | – | – | – | – | – | – | – | – | – | – | –
CCCCCCCC/C=C\CCCCCCCC(=O)OCC(C[N+](C)(C)C)OC(=O)CCCCCCC/C=C\CCCCCCCC (stereo not drawn) [DOTAP, 1,2-dioleoyl-3-trimethylammonium-propane] | – | 0.066 | 0.050 | 0.094 | 0.073 | 0.191 | 0.136 | 631 min | 827 min | 571 min | 218 min | 305 min
